Measured values taken from ChEMBL document CHEMBL5131466, “Discovery and development of labdane-oxindole hybrids as small-molecule inhibitors against chikungunya virus infection” (Eur J Med Chem, 2022).
Activity calls are given as the source filed them. The rule behind the calls is not given here.

Experiments:
[1] = tested on: Chikungunya virus; test: Antiviral activity against CHIKV 122508 infected in human HeLa CCL2 cells assessed as inhibition of viral replication at MOI of 1 incubated for 24 hpi by immunofluorescence assay; type: functional, organism-based; conditions: Chikungunya virus, 122508, HeLa CCL2
[2] = tested on: Chikungunya virus; test: Antiviral activity against CHIKV 122508 infected in human HeLa CCL2 cells assessed as inhibition of viral replication at MOI of 1 at 80 uM pretreated for 2 hrs followed by viral infection measured after 1.5 hrs by viral plaque assay (reference value: 6.2); type: functional; conditions: time 3.5 hrs
[3] = tested on: Chikungunya virus; test: Antiviral activity against CHIKV 122508 infected in human HeLa CCL2 cells assessed as inhibition of viral replication at MOI of 1 at 40 uM pretreated with compound for 2 hr prior to viral infection by viral plaque assay (reference value: 6.2 %); type: functional
[4] = tested on: Chikungunya virus; test: Antiviral activity against CHIKV 122508 mutant infected in hamster BHK-21cells assessed as log reduction in viral titer at 80 uM measured after 14 passage; type: functional, organism-based
[5] = Cytotoxicity against human HeLa CCL2 cells assessed as reduction in cell viability measured after 24 hrs by Alamar blue assay; type: functional
[6] = tested on: Chikungunya virus; test: Antiviral activity against CHIKV 6708 infected in hamster BHK-21 cells assessed as reduction in virus titer in cells; type: functional, organism-based; conditions: Chikungunya virus, 6708, BHK-21
[7] = Selectivity index, ratio of CC50 for cytotoxicity against human HeLa CCL2 cells to EC50 for antiviral activity against CHIKV 122508 infected in human HeLa CCL2 cells; type: toxicity, cell-based; conditions: read-out: Ratio CC50/EC50
[8] = tested on: Chikungunya virus; test: Antiviral activity against CHIKV 6708 infected in hamster BHK-21 cells assessed as reduction in viral titer at 80 uM post treatment; type: functional, organism-based
[9] = tested on: Chikungunya virus; test: Antiviral activity against CHIKV 122508 infected in human HeLa CCL2 cells assessed as inhibition of viral replication at MOI of 1 at 80 uM incubated for 24 hpi by viral plaque assay; type: functional; set-up: unit not given here; conditions: time 24 hrs
[10] = Selectivity index, ratio of CC50 for Cytotoxicity against hamster BHK-21 cells to EC50 for Antiviral activity against CHIKV 6708 infected in hamster BHK-21 cells; type: toxicity, cell-based; conditions: read-out: Ratio CC50/EC50
[11] = tested on: BHK-21; test: Cytotoxicity against hamster BHK-21 cells assessed as reduction in cell viability; type: functional; conditions: Mesocricetus auratus
[12] = tested on: Chikungunya virus; test: Antiviral activity against CHIKV 122508 infected in […] BHK-21 cells assessed as reduction in viral titer at MOI of 1 measured after 24 hpi by viral plaque assay; type: functional, organism-based; conditions: Chikungunya virus, 122508, BHK-21
[13] = tested on: Chikungunya virus; test: Antiviral activity against CHIKV 122508 infected in human HeLa CCL2 cells assessed as inhibition of viral replication at MOI of 1 at 20 uM incubated for 24 hpi by viral plaque assay; type: functional; conditions: time 24 hrs
[14] = tested on: Chikungunya virus; test: Antiviral activity against CHIKV 122508 infected in human HeLa CCL2 cells assessed as inhibition of viral replication at MOI of 1 at 5 uM incubated for 24 hpi by viral plaque assay; type: functional; conditions: time 24 hrs
[15] = tested on: Chikungunya virus; test: Antiviral activity against CHIKV 122508 infected in human HeLa CCL2 cells assessed as inhibition of viral replication at MOI of 1 at 1 uM incubated for 24 hpi by viral plaque assay; type: functional; conditions: time 24 hrs

| SMILES | CC50 [5] [µM] | selectivity ratio [7] | EC50 [12] [µM] | Activity [14] | also measured |
| --- | --- | --- | --- | --- | --- |
| C=C1CC[C@@H]2[C@](C)(CO)[C@H](O)CC[C@@]2(C)[C@@H]1C/C=C1/C(=O)OC[C@H]1O [ANDROGRAPHOLIDE] |  |  |  |  | EC50 [1]: 77 µM |
| C=C1CC[C@H]2C(C)(C)CCC[C@]2(C)[C@H]1C/C=C1/C(=O)Nc2c(Cl)cccc21 | 130 | 83 | 1.55 |  | Activity [2]: 4.6; Activity [3]: 5.2; Activity [4]: Active; EC50 [6]: 0.14 µM; Activity [8]: Active; Activity [9]: 3.9; selectivity ratio [10]: 714; CC50 [11]: > 100 µM |
| C=C1CC[C@H]2C(C)(C)CCC[C@]2(C)[C@H]1C/C=C1\C(=O)Nc2ncccc21 | 34.8 | 870 | 0.04 |  | Activity [13]: 1.7 |
| C=C1CC[C@H]2C(C)(C)CCC[C@]2(C)[C@H]1C/C=C1/C(=O)Nc2cc(C)ccc21 | 25.4 | 12700 | 0.002 | 1.2 |  |
| C=C1[C@H](O)C[C@H]2C(C)(C)CCC[C@]2(C)[C@H]1C/C=C1/C(=O)Nc2c(Cl)cccc21 | 6.1 | 6100 | 0.001 |  | Activity [15]: 1.1 |
| C=C1CC[C@H]2C(C)(C)CCC[C@]2(C)[C@H]1C/C=C1\C(=O)Nc2ccc(C)cc21 | 13.8 | 461 | 0.03 | 0.9 |  |
| C=C1CC[C@H]2C(C)(C)CCC[C@]2(C)[C@H]1C/C=C1/C(=O)Nc2c(F)cccc21 | 81.4 | 4070 | 0.02 |  | Activity [13]: 2.3 |
| C=C1CC[C@H]2C(C)(C)CCC[C@]2(C)[C@H]1C/C=C1/C(=O)Nc2ccc(F)cc21 | 5.6 | 94 | 0.06 | 1.5 |  |
| C=C1CC[C@@H]2[C@](C)(CO)[C@H](O)CC[C@@]2(C)[C@@H]1C/C=C1/C(=O)Nc2ccccc21 | 76.9 | 14 | 5.52 |  | EC50 [1]: 5.5 µM |
